Data set [1] concerns the target T1, PB1(5) (Homo sapiens, UniProt Q86U86).
T1 construct: the fifth bromodomain of PB1 (PB1(5)); made in house
Put plainly: DSF Tm shift assay, PB1(5) bromodomain. The data set is classed as binding. To be noted: 10 μM inhibitor, average of three replicates.

Data set [2] has as its target T2, CREBBP (Homo sapiens, UniProt Q92793).
T2 construct: representative bromodomains (PCAF, BRD4(1), CREBBP, TRIM33B) from other subfamilies using DSF; made in house
Put plainly: DSF Tm shift assay, CREBBP. The data set is classed as binding. Conditions: 10 μM, single measurement. The method, then:
(§1) Protein Expression and Purification.
(§2) Proteins were cloned, expressed, and purified as previously described.1 […]
(§3) Bromodomain DSF Tm assays were performed using a Mx3005p real-time PCR machine (Agilent) and low profile 96-well PCR plates (AB-0700, Life Technologies). Protein was buffered in 10 mM HEPES, pH 7.5, 500 mM NaCl and assayed at a concentration of 2 µM with 10 µM inhibitor concentration and 1:1000 SyproOrange (Invitrogen). Excitation and emission filters were set to 465 and 590 nm respectively. The temperature was raised by 3 °C per 1 min from 25–95 °C, and fluorescence readers were taken at each interval. Data analysis was carried out as described previously.2
(§4) AlphaScreen Displacement Assay.
(§5) AlphaScreen assays were based on a reported protocol, with minor variations.3 In place of a biotinylated peptide, a biotinylated ligand was used at 25 nM final concentration.
(§6) Isothermal Calorimetry Experiments.
(§7) Calorimetric experiments were performed on a VP-ITC micro-calorimeter (MicroCalTM, LLC Northampton, MA). Protein solutions were buffer exchanged by dialysis into buffer 20 mM Hepes pH 7.5, 150 mM NaCl, and 0.5 mM TCEP. All measurements were carried out at 293.15 K while stirring at 286 rpm. The micro syringe was loaded with protein solutions ranging from […]

Data set [3] addresses T1, PB1(5). Put plainly: Isothermal calorimetry (ITC), PB1(5) bromodomain. It counts as binding. Conditions: for K × 10^6 (M^–1): 293.15 K. In general terms: ITC needs no label: the signal is the heat of the interaction.
The target of data set [4] is T3, BRD4(1) (Homo sapiens, UniProt O60885).
T3 construct: representative bromodomains (PCAF, BRD4(1), CREBBP, TRIM33B) from other subfamilies using DSF; made in house
Put plainly: DSF Tm shift assay, BRD4(1). It counts as binding. Conditions: 10 μM, single measurement. The method, then: as §1, §2, §3, §4, §5, §6, §7

Data set [5] concerns the target T4, PCAF (Homo sapiens, UniProt Q92831).
T4 construct: representative bromodomains (PCAF, BRD4(1), CREBBP, TRIM33B) from other subfamilies using DSF; made in house
T4 sequence (Q92831 723-827 limits assumed): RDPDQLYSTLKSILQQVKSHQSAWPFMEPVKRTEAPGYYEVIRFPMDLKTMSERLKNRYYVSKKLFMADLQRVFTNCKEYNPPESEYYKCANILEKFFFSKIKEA
Put plainly: DSF Tm shift assay, PCAF. It counts as binding. Conditions: 10 μM, single measurement. The procedure: as §1, §2, §3, §4, §5, §6, §7

Data set [6] deals with T5, TRIM33B (Homo sapiens, UniProt Q9UPN9).
T5 construct: representative bromodomains (PCAF, BRD4(1), CREBBP, TRIM33B) from other subfamilies using DSF; made in house
T5 sequence (Q9UPN9 957-1063 isoform Q9UPN9-2 limits assumed): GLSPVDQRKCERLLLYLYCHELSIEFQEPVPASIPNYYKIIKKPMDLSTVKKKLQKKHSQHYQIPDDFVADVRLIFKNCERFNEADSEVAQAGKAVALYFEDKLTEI
Put plainly: DSF Tm shift assay, TRIM33B. The data set is classed as binding. To be noted: 10 μM, single measurement. The method, then:
as §1, §2, §3, §4, §5, §6, §7

Data set [7] is described as follows: Solubility (qualitative). It counts as physicochemical. To be noted: chlorinated derivatives.
For data set [8], the target named is SMARCA4 (Homo sapiens, UniProt P51532). Put plainly: Isothermal calorimetry (ITC), SMARCA4. The data set is classed as binding.
For data set [9], the target named is T6, SMARCA2B (Homo sapiens, UniProt P51531).
T6 construct: made in house
Put plainly: Isothermal calorimetry (ITC), SMARCA2B. The data set is classed as binding. The procedure: as §1, §2, §3, §4, §5, §6, §7
for the cell. All injections for PB1(5) were performed using an initial injection of 2 μl followed by 30 injections of 8 μl with a duration of 16 sec per injection and a spacing of 240 sec between injection. Injections for SMARCA2B and SMARCA4 were performed using an initial injection of 2 μl followed by 35 injections of 8 μl with a duration of 16 sec per injection and a spacing of 240 sec between injection.The data were analyzed with the MicroCal ORIGIN software package employing a single binding site model. The first data point was excluded from the analysis.
Thermodynamic parameters were calculated (ΔG = ΔH - TΔS = -RTlnKB where ΔG, ΔH and ΔS are the changes in free energy, enthalpy and entropy of binding, respectively).
Fluorescence Recovery After Photobleaching (FRAP)
FRAP studies were performed essentially as described. In brief, U2OS cells were transfected (Fugene HD; Roche) with mammalian over-expression constructs encoding GFP fused to the N-terminus of full length wild-type or mutant SMARCA2 (1). The imaging system consisted of a Zeiss LSM 710 laser-scanning and control system (Zeiss) coupled to an inverted Zeiss Axio Observer.Z1 microscope equipped with a high-numerical-aperture (N. A. 1.3) 40 x oil immersion objective (Zeiss). […] FRAP and GFP fluorescence imaging were both carried out with an argon-ion laser (488 nm) and with a PMT detector set to detect fluorescence between 500-550 nm. […] The image datasets and fluorescence recovery data were exported from ZEN 2009, the microscope control

A word on the ΔTm: it is the change in melting temperature against a reference sample.

Values joined by “and” are separate entries in the source; they are usually repeats but may differ in a detail not shown here. Equal entries are not always repeated.

Sequence of SMARCA4 (P51532 1453-1564 limits assumed): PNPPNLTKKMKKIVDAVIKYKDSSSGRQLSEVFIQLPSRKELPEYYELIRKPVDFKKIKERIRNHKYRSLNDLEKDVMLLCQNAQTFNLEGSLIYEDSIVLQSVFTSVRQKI
T2 sequence (Q92793 1085-1192 limits assumed): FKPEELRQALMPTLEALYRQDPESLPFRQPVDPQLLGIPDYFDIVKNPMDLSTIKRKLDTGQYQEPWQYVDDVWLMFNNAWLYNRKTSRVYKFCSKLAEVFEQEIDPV
T6 sequence (P51531 1373-1493 isoform P51531-2 limits assumed): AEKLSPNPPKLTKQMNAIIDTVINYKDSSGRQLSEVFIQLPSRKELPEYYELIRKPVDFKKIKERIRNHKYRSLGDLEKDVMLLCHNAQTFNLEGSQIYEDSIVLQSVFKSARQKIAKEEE
T1 sequence (Q86U86 653-774): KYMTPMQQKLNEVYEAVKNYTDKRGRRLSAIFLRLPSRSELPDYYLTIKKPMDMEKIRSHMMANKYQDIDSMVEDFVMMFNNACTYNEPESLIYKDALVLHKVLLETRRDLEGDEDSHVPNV

As to `Cc1cccc2c1c(=O)nc1n2CCC1` [Compound 16c], the thermal shift (ΔTm) at 10 µM in data set [1] was 0 °C.
`O=c1nc2n(c3cccc(F)c13)CCC2` [Compound 17c]: the shift in melting temperature (ΔTm) at 10 µM in data set [1] is -0.1 ± 0.8 °C.
As for `CN(C)/C=C1\CCn2c1nc(=O)c1c(Cl)cccc12` [Compound 18], in [2], the “CREBBP Tm” value was found to be 0.0 °C. For the same compound, in [3], the TΔS is 12.63 kJ/mol and 12.6 kJ/mol; the ΔG was -38.47 kJ/mol; the “K × 10^6 (M^–1)” value is on record as 7.29 × 10^6 M^–1. In data set [4], the “BRD4(1) Tm” value is 0.3 °C. Further, the “PCAF Tm” value in data set [5] was determined as 0.2 °C. In addition, the “TRIM33B Tm” value in data set [6] worked out at 0.2 °C.
On to `O=c1nc2n(c3cccc(Cl)c13)CCC2` [Compound 18c, 6-chloro-2,3-dihydropyrrolo[1,2-a]quinazolin-5(1H)-one], for which, in data set [1], the ΔTm at 10 µM is 2.6 ± 0.3 °C.
On the same count and under the same terms, with `O=c1nc2n(c3cccc(Br)c13)CCC2` [Compound 19c] the figure was 3.1 ± 0.3 °C; with `COc1cccc2c1c(=O)nc1n2CCC1` [Compound 20c], -0.6 ± 0.5 °C.
On the same count and under the same terms, under `O=c1nc2n(c3cccc(O)c13)CCC2` [Compound 21c] stands -0.1 ± 0.4 °C.
`O=c1nc2n(c3cccc(Cl)c13)CC/C2=C\N1CCCCC1` [Compound 24]: in data set [2], the “CREBBP Tm” value turned out to be 0.0 °C. Further, the “DMSO and aqueous solubility” value in data set [7] is “greatly improved”. In data set [3], the TΔS is 16.92 kJ/mol and 16.7 kJ/mol; the ΔG is -38.67 kJ/mol; the “K × 10^6 (M^–1)” value is on record as 7.86 × 10^6 M^–1. The “BRD4(1) Tm” value in [4] is 1.0 °C. In addition, the “TRIM33B Tm” value in [6] was -0.1 °C.
With `O=c1nc2n(c3cccc(Cl)c13)CC/C2=C\N1CCOCC1` [Compound 25], the “CREBBP Tm” value in data set [2] turned out to be 0.1 °C. Moreover, in data set [5], the “PCAF Tm” value turned out to be 0.8 °C. The “TRIM33B Tm” value in data set [6] amounted to 0.9 °C.
On to `CN1CCN(/C=C2\CCn3c2nc(=O)c2c(Cl)cccc23)CC1` [Compound 26], for which the “DMSO and aqueous solubility” value in [7] is listed as “greatly improved”. Besides, in data set [8], the “K×10^6 (M-1)” value is on record as 2.40 ×10^6 M-1, the TΔS worked out at 20.23 kJ/mol, the ΔG is -20.24 kJ/mol and the ΔH was -15.59 kJ/mol. Further, in data set [3], the ΔG is -38.79 kJ/mol and the “K × 10^6 (M^–1)” value is on record as 8.09 × 10^6 M^–1. Also, in data set [9], the “K×10^6 (M-1)” value is 3.81 ×10^6 M-1, the TΔS turned out to be 23.05 kJ/mol, the ΔG was -36.86 kJ/mol and the ΔH is -13.82 kJ/mol.
As to `CCN1CCN(/C=C2\CCn3c2nc(=O)c2c(Cl)cccc23)CC1` [Compound 27], in data set [7], the “DMSO and aqueous solubility” value is “greatly improved”. Also, in [3], the TΔS worked out at 19.7 kJ/mol, the ΔG was -38.48 kJ/mol and the “K × 10^6 (M^–1)” value is listed as 7.05 × 10^6 M^–1.
On to `CCC(/C=C1\CCn2c1nc(=O)c1c(Cl)cccc12)CC` [Compound 28], for which, in data set [8], the “K×10^6 (M-1)” value is 0.49 ×10^6 M-1, the TΔS amounted to 26.97 kJ/mol, the ΔG was -31.88 kJ/mol and the ΔH is -4.912 kJ/mol. For the same compound, in data set [3], the TΔS is 9.883 kJ/mol and 9.62 kJ/mol; the ΔG is -38.12 kJ/mol.

These data come from publication PMC4920105, “Identification and Development of 2,3-Dihydropyrrolo[1,2-a]quinazolin-5(1H)-one Inhibitors Targeting Bromodomains within the Switch/Sucrose Nonfermenting Complex” (Journal of Medicinal Chemistry, 2016).
